# Measured values reported in patent publication EP0035619B1, “Derivatives of 3-amino-(1H,3H)-2,4-quinazolin-diones” (BERRI-BALZAC Société dite:, priority 1980, dated 1981).
# Key:
# Assay type in all cases: in vivo
# souris Swiss = assay: Acute toxicity (LD50) in Swiss mice
# Description: Les toxicités aiguës ont été déterminées sur la souris Swiss.
# Par exemple, pour le composé de l'exemple 3, la DL50 par voie IP est de 250 mg et per os de 225 mg.
# rat vigile = assay: Diuretic action in the conscious rat with i.p. isotonic sodium chloride load; details: mean increase of diuresis versus mean of controls
# Description: (§1) L'action diurétique est mesurée sur le rat vigile traité par 25 ou 50 mg/kg de substance à tester prise par voie orale ou intrapéritonéale et recevant une injection I.P. de soluté isotonique de chlorure de sodium au début de l'essai. Les rats sont groupés par trois et les expériences sont répétées en croisant les lots de rats.
# La diurèse est exprimée par le pourcentage de l'augmentation moyenne de la diurèse par rapport à la moyenne des témoins.
# as §1, with “IP” for “I.P.”
# souris = assay: Sedative action: sedation index (hole-board exploration, hypothermia, mobility, agility)
# Source text: (§2) L'action sédative est mesurée par un indice de sédation. Cet indice de sédation tient compte du pourcentage, chez la souris, de la diminution de l'exploration de la planche à trous par rapport à des témoins, de l'hypothermie, de la mobilité, de l'agilité. Les résultats pour le composé de l'exemple 3, sont donnés au Tableau Il.
# as §2, with “3” for “3,”, “II.” for “Il.”
# [1] = Potentiation of psychotropic drugs (Nembutal, Chlorpromazine, morphine) and antagonism of amphetamine
# Source text: (§3) D'autre part, il faut noter une potentialisation par les composés de formule (I) des psychotropes : Nembutal, Chlorpromazine, morphine, et un antagoniste de l'amphétamine. A titre d'exemple, le composé de l'exemple 3 potentialise l'effet hypnotique du Nembutal de + 146 %, celui de la Chlorpromazine de + 50 % et celui de la morphine de 40 %. Par contre, il antagonise à 70 % les effets de l'amphétamine.
# as §3, with “morphine” for “morphine,”
smiles,measurement,setting,value
"CN(C)n1c(=O)c2ccccc2n(C)c1=O [Exemple 3, diméthylamino-3 méthyl-1 (1 H, 3H) quinazolinedione-2,4]",DL50,souris Swiss; par voie IP,250 mg
same,DL50,souris Swiss; per os,225 mg
same,Diurèse,rat vigile; 25 mg/kg par voie IP,60%
same,Diurèse,rat vigile; 25 mg/kg par voie orale,77%
same,Diurèse,rat vigile; 50 mg/kg par voie IP,200%
same,Diurèse,rat vigile; 50 mg/kg par voie orale,200%
same,Indice de sédation,souris; 50 mg/kg per os,76
same,Indice de sédation,souris; 100 mg/kg per os,164
same,Indice de sédation chimique,souris; 100 mg/kg per os,179
same,Indice de sédation,souris; 100 mg/kg voie I.P.,236
same,potentialise l'effet de la Chlorpromazine,[1]; with Chlorpromazine,50%
same,potentialise l'effet hypnotique du Nembutal,[1]; with Nembutal,146%
same,antagonise les effets de l'amphétamine,[1]; with amphétamine,70%
same,potentialise l'effet de la morphine,[1]; with morphine,40%
